Source: ChEMBL document CHEMBL1133319, “Eryloside F, a novel penasterol disaccharide possessing potent thrombin receptor antagonist activity” (Bioorg Med Chem Lett, 2000)
Values after ≈ are worked out from the molar mass of the structure shown.

Assays:
Homo sapiens [1] = species on record: Homo sapiens; assay: Inhibitory concentration of compound was determined against U-46619 (3 uM) induced platelet aggregation; assay type: functional
Homo sapiens [2] = species on record: Homo sapiens; assay: Inhibitory concentration of compound was determined against SFLLRN (3 uM) induced platelet aggregation; assay type: functional

CC(C)=CCC[C@@H](C)[C@H]1CC[C@@]2(C(=O)O)C3=C(CC[C@]12C)[C@@]1(C)CC[C@H](O[C@@H]2OC[C@H](O)[C@H](O)[C@H]2O[C@@H]2O[C@H](CO)[C@H](O)[C@H](O)[C@H]2O)C(C)(C)[C@@H]1CC3 [ERYLOSIDE F]
IC50 (Homo sapiens [1]): 1.7 µg/mL (≈ 2.26 µM) | IC50 (Homo sapiens [2]): 0.3 µg/mL (≈ 0.399 µM)
